We go through 22 compounds from patent publication US11708348B2, “Protease inhibitors for treatment of coronavirus infections” (The Scripps Research Institute, priority 2021, dated 2023).

Where a name gives a salt, the structure may show the parent alone.

One test has as its system SARS-CoV-2 strain USA-WA1/2020. The test is described as follows: microbe, parasite or virus in culture. It is filed as cell-based. The conditions noted are these: Severe acute respiratory syndrome coronavirus 2, HeLa-ACE2, 24 h, HeLa-ACE2 cells, SARS-CoV-2 infection, 24 h; cells given as a bound; read-out: EC50, uM (Hela).
Regarding `CC(C)C[C@H](NC(=O)O[C@@H]1CCOC1)C(=O)N[C@@H](C[C@@H]1CCNC1=O)C(=O)COc1c(F)c(F)cc(F)c1F` [Compound 126, (R)-tetrahydrofuran-3-yl ((S)-4-methyl-1-oxo-1-(((S)-3-oxo-1-((S)-2-oxopyrrolidin-3-yl)-4-(2,3,5,6-tetrafluorophenoxy)butan-2-yl)amino)pentan-2-yl)carbamate], the EC50 was more than 1 µM.

For `CC(C)C[C@H](NC(=O)OCCCc1cccc(Cl)c1)C(=O)N[C@@H](C[C@@H]1CCNC1=O)C(=O)COc1c(F)c(F)cc(F)c1F` [Compound 128, 3-(3-chlorophenyl)propyl ((S)-4-methyl-1-oxo-1-(((S)-3-oxo-1-((S)-2-oxopyrrolidin-3-yl)-4-(2,3,5,6-tetrafluorophenoxy)butan-2-yl)amino)pentan-2-yl)carbamate], the EC50 was more than 1 µM.

With `CC(C)C[C@H](NC(=O)OCCc1cccc(Cl)c1)C(=O)N[C@@H](C[C@@H]1CCNC1=O)C(=O)COc1c(F)c(F)cc(F)c1F` [Compound 138, 3-chlorophenethyl ((S)-4-methyl-1-oxo-1-(((S)-3-oxo-1-((S)-2-oxopyrrolidin-3-yl)-4-(2,3,5,6-tetrafluorophenoxy)butan-2-yl)amino)pentan-2-yl)carbamate], the half-maximal effective concentration (EC50) was more than 1 µM.

`CC(C)C[C@H](NC(=O)OC/C=C/c1cccc(Cl)c1)C(=O)N[C@@H](C[C@@H]1CCNC1=O)C(=O)COc1c(F)c(F)cc(F)c1F` [Compound 139, (E)-3-(3-chlorophenyl)allyl ((S)-4-methyl-1-oxo-1-(((S)-3-oxo-1-((S)-2-oxopyrrolidin-3-yl)-4-(2,3,5,6-tetrafluorophenoxy)butan-2-yl)amino)pentan-2-yl)carbamate]: the 50% effective concentration (EC50) was more than 1 µM.

Regarding `CC(C)C[C@H](NC(=O)Cc1cccc(Cl)c1)C(=O)N[C@@H](C[C@@H]1CCNC1=O)C(=O)COc1c(F)c(F)cc(F)c1F` [Compound 144, (S)-2-(2-(3-chlorophenyl)acetamido)-4-methyl-N—((S)-3-oxo-1-((S)-2-oxopyrrolidin-3-yl)-4-(2,3,5,6-tetrafluorophenoxy)butan-2-yl)pentanamide], the concentration for a half-maximal effect (EC50) was more than 1 µM.

The same test, now with this note: Severe acute respiratory syndrome coronavirus 2, HeLa-ACE2, 24 h, HeLa-ACE2 cells, SARS-CoV-2 infection, 24 h; class symbols; read-out: EC50, uM (Hela).
Regarding `CC(C)C[C@H](NC(=O)C(=O)NC1CCC1)C(=O)N[C@@H](C[C@@H]1CCNC1=O)C(=O)COc1c(F)c(F)cc(F)c1F` [Compound 124, N1-cyclobutyl-N2-((S)-4-methyl-1-oxo-1-(((S)-3-oxo-1-((S)-2-oxopyrrolidin-3-yl)-4-(2,3,5,6-tetrafluorophenoxy)butan-2-yl)amino)pentan-2-yl)oxalamide], the EC50 lay in the range of 0.05 to 0.2 µM.

For `CC(C)C[C@H](NC(=O)O[C@H]1CCOC1)C(=O)N[C@@H](C[C@@H]1CCNC1=O)C(=O)COc1c(F)c(F)cc(F)c1F` [Compound 127, (S)-tetrahydrofuran-3-yl ((S)-4-methyl-1-oxo-1-(((S)-3-oxo-1-((S)-2-oxopyrrolidin-3-yl)-4-(2,3,5,6-tetrafluorophenoxy)butan-2-yl)amino)pentan-2-yl)carbamate], the concentration giving a half-maximal response (EC50) is 0.5 to 1 µM.

Consider `CC(C)C[C@H](NC(=O)C(=O)Nc1ccccc1F)C(=O)N[C@@H](C[C@@H]1CCCNC1=O)C(=O)COc1c(F)c(F)cc(F)c1F` [Compound 129, N1-(2-fluorophenyl)-N2-((S)-4-methyl-1-oxo-1-(((S)-3-oxo-1-((S)-2-oxopiperidin-3-yl)-4-(2,3,5,6-tetrafluorophenoxy)butan-2-yl)amino)pentan-2-yl)oxalamide], for which the EC50 is less than 0.05 µM.

For the compound `CC(C)(C)C[C@H](NC(=O)C(=O)Nc1ccccc1F)C(=O)N[C@@H](C[C@@H]1CCNC1=O)C(=O)COc1c(F)c(F)cc(F)c1F` [Compound 130, N1-((S)-4,4-dimethyl-1-oxo-1-(((S)-3-oxo-1-((S)-2-oxopyrrolidin-3-yl)-4-(2,3,5,6-tetrafluorophenoxy)butan-2-yl)amino)pentan-2-yl)-N2-(2-fluorophenyl)oxalamide], the concentration giving a half-maximal response (EC50) was less than 0.05 µM.

As to `CC(C)C[C@H](NC(=O)C(=O)Nc1ccccc1F)C(=O)N[C@@H](C[C@@H]1CCNC1=O)C(=O)COc1c(F)cc(F)cc1F` [Compound 131, N1-(2-fluorophenyl)-N2-((S)-4-methyl-1-oxo-1-(((S)-3-oxo-1-((S)-2-oxopyrrolidin-3-yl)-4-(2,4,6-trifluorophenoxy)butan-2-yl)amino)pentan-2-yl)oxalamide], the concentration for a half-maximal effect (EC50) is 0.2 to 0.5 µM.

Regarding `CC(C)C[C@H](NC(=O)C(=O)Nc1ccccc1F)C(=O)N[C@@H](C[C@@H]1CCNC1=O)C(=O)COc1c(F)ccc(F)c1F` [Compound 132, N1-(2-fluorophenyl)-N2-((S)-4-methyl-1-oxo-1-(((S)-3-oxo-1-((S)-2-oxopyrrolidin-3-yl)-4-(2,3,6-trifluorophenoxy)butan-2-yl)amino)pentan-2-yl)oxalamide], the EC50 lay within 0.05 to 0.2 µM.

On to `CC(C)C[C@H](NC(=O)C(=O)N[C@@H]1CCCOC1)C(=O)N[C@@H](C[C@@H]1CCNC1=O)C(=O)COc1c(F)c(F)cc(F)c1F` [Compound 133, N1-((S)-4-methyl-1-oxo-1-(((S)-3-oxo-1-((S)-2-oxopyrrolidin-3-yl)-4-(2,3,5,6-tetrafluorophenoxy)butan-2-yl)amino)pentan-2-yl)-N2-((R)-tetrahydro-2H-pyran-3-yl)oxalamide], for which the concentration giving a half-maximal response (EC50) was in the range of 0.05 to 0.2 µM.

On to `O=C(Nc1ccccc1Cl)C(=O)NC(CC1CCOCC1)C(=O)N[C@@H](C[C@@H]1CCNC1=O)C(=O)COc1c(F)c(F)cc(F)c1F` (stereo partly drawn) [Compound 134, N1-(2-chlorophenyl)-N2-(1-oxo-1-(((S)-3-oxo-1-((S)-2-oxopyrrolidin-3-yl)-4-(2,3,5,6-tetrafluorophenoxy)butan-2-yl)amino)-3-(tetrahydro-2H-pyran-4-yl)propan-2-yl)oxalamide], for which the concentration for a half-maximal effect (EC50) was less than 0.05 µM.

`CC(C)C[C@H](NC(=O)C(=O)Nc1ccccc1F)C(=O)N[C@H](Cc1cnc[nH]1)C(=O)COc1c(F)c(F)cc(F)c1F` [Compound 136, Nl-((S)-1-(((R)-1-(1H-imidazol-5-yl)-3-oxo-4-(2,3,5,6-tetrafluorophenoxy)butan-2-yl)amino)-4-methyl-1-oxopentan-2-yl)-N2-(2-fluorophenyl)oxalamide]: the 50% effective concentration (EC50) was 0.5 to 1 µM.

For `CC(C)C[C@H](NC(=O)OCC1CCCC1)C(=O)N[C@@H](C[C@@H]1CCNC1=O)C(=O)COc1c(F)c(F)cc(F)c1F` [Compound 137, cyclopentylmethyl ((S)-4-methyl-1-oxo-1-(((S)-3-oxo-1-((S)-2-oxopyrrolidin-3-yl)-4-(2,3,5,6-tetrafluorophenoxy)butan-2-yl)amino)pentan-2-yl)carbamate], the EC50 was in the range of 0.5 to 1 µM.

As to `CC(C)C[C@H](NC(=O)C(=O)Nc1ccccc1F)C(=O)N[C@@H](C[C@@H]1CCNC1=O)C(=O)COc1cc(C(F)(F)F)on1` [Compound 141, N1-(2-fluorophenyl)-N2-((S)-4-methyl-1-oxo-1-(((S)-3-oxo-1-((S)-2-oxopyrrolidin-3-yl)-4-((5-(trifluoromethyl)isoxazol-3-yl)oxy)butan-2-yl)amino)pentan-2-yl)oxalamide], the 50% effective concentration (EC50) lay within 0.5 to 1 µM.

With `COCc1ccccc1NC(=O)C(=O)N[C@@H](CC(C)C)C(=O)N[C@@H](C[C@@H]1CCNC1=O)C(=O)COc1c(F)c(F)cc(F)c1F` [Compound 143, N1-(2-(methoxymethyl)phenyl)-N2-((S)-4-methyl-1-oxo-1-(((S)-3-oxo-1-((S)-2-oxopyrrolidin-3-yl)-4-(2,3,5,6-tetrafluorophenoxy)butan-2-yl)amino)pentan-2-yl)oxalamide], the half-maximal effective concentration (EC50) is 0.05 to 0.2 µM.

Regarding `CC(C)C[C@H](NC(=O)C(=O)N[C@H]1CCCc2ccccc21)C(=O)N[C@@H](C[C@@H]1CCNC1=O)C(=O)COc1c(F)c(F)cc(F)c1F` [Compound 145, N^1—((S)-4-methyl-1-oxo-1-(((S)-3-oxo-1-((S)-2-oxopyrrolidin-3-yl)-4-(2,3,5,6-tetrafluorophenoxy)butan-2-yl)amino)pentan-2-yl)-N^2—((S)-1,2,3,4-tetrahydronaphthalen-1-yl)oxalamide], the half-maximal effective concentration (EC50) fell in the range of 0.2 to 0.5 µM.

`CC(C)C[C@H](NC(=O)[C@H](O)c1cccc(Cl)c1)C(=O)N[C@@H](C[C@@H]1CCNC1=O)C(=O)COc1c(F)c(F)cc(F)c1F` [Compound 146, (S)-2-((R)-2-(3-chlorophenyl)-2-hydroxyacetamido)-4-methyl-N-((S)-3-oxo-1-((S)-2-oxopyrrolidin-3-yl)-4-(2,3,5,6-tetrafluorophenoxy)butan-2-yl)pentanamide]: the concentration for a half-maximal effect (EC50) was 0.05 to 0.2 µM.

The same test, now with this note: Severe acute respiratory syndrome coronavirus 2, HeLa-ACE2, 24 h; […]; cells given as a bound; read-out: EC50, uM (Hela).
Consider `CC(=O)N1CCC(NC(=O)C(=O)N[C@@H](CC(C)C)C(=O)N[C@@H](C[C@@H]2CCNC2=O)C(=O)COc2c(F)c(F)cc(F)c2F)CC1` [Compound 140, Nl-(l-acetylpiperidin-4-yl)-N2-((S)-4-methyl-1-oxo-1-(((S)-3-oxo-1-((S)-2-oxopyrrolidin-3-yl)-4-(2,3,5,6-tetrafluorophenoxy)butan-2-yl)amino)pentan-2-yl)oxalamide], for which the EC50 is more than 1 µM.

The test is the same for the next values; noted with them: Severe acute respiratory syndrome coronavirus 2, HeLa-ACE2, 24 h; read-out: EC50, uM (Hela).
Turning to `CC(C)C[C@H](NC(=O)C(=O)Nc1ccccc1F)C(=O)N[C@@H](C[C@@H]1CCNC1=O)C(=O)COP(=O)(c1ccccc1)c1ccccc1` [Compound 125, (S)-3-((S)-2-(2-((2-fluorophenyl)amino)-2-oxoacetamido)-4-methylpentanamido)-2-oxo-4-((S)-2-oxopyrrolidin-3-yl)butyl diphenylphosphinate], the concentration for a half-maximal effect (EC50) is less than 0.05 µM.

Take `CC(C)C[C@H](NC(=O)C(=O)Nc1ccccc1F)C(=O)N[C@@H](CCCCN)C(=O)COc1c(F)c(F)cc(F)c1F` [Compound 142, N^1—((S)-1-(((S)-7-amino-2-oxo-1-(2,3,5,6-tetrafluorophenoxy)heptan-3-yl)amino)-4-methyl-1-oxopentan-2-yl)-N^2-(2-fluorophenyl)oxalamide hydrochloride]: the EC50 was less than 0.05 µM.

For orientation: EC50 means the concentration that produces a half-maximal response.
